Measured values reported in patent publication US20100010098A1, “POLYMORPHS OF RASAGILINE HYDROCHLORIDE” (priority 2008, published 2010).
Structures can show the parent of a compound that is named as a salt. Where two headings read alike, the source gives them in different places.

Tests used:
[1] = solid state; suspension with a liquid; compared with Form I
Protocol: 9 mg of rasagiline HCl Form I was suspended in 0.15 ml 2-PrOH and stirred for 11 days at 70° C.
b) 50 mg of rasagiline HCl Form I was suspended in 0.23 ml 2-PrOH and stirred for 7 days at 5° C.
20 mg of Form II was added to a suspension of 1.49 g Form III in 6 ml 2-PrOH. After 4 days solid material was isolated by filtration, washed with diethyl ether and was dried overnight at 40° C. in vacuo.

[2] = after storage for 4 weeks at 55° C./90% relative humidity

Structure (SMILES)	relative stability of the polymorphic form [1]	Chemical Purity (HPLC) ([2]; hydrochloride) [%]	Color Change ([2]; hydrochloride)	Water uptake ([2]; hydrochloride)	Chemical Purity (HPLC) [2] [%]	Color Change [2]	Water uptake [2]
C#CCN[C@@H]1CCc2ccccc21 [Form II rasagiline hydrochloride, rasagiline hydrochloride]	more stable in the solid state than the crystalline Form I	100	No	No			
C#CCN[C@@H]1CCc2ccccc21 [rasagiline mesylate, reference compound]					97.1	Yes, brown color	Yes
